Data: patent publication US7803571B2, “Method for identifying IRS inhibitors or agonists” (Sanfoi-Aventis Deutschland GmbH, priority 2003, dated 2010)

How the values were obtained:
Assay type in all cases: biochemical
[1] = tested on: PKC from rat brain (PKC-rb); assay: Serine/threonine phosphorylation of rIRS-1^449-664 by PKC from rat brain ([32P]ATP, autoradiography); details: 0.5 μg PKC-rb, 1 μg rIRS-1^449-664, 50 μM ATP
Method: For rIRS-1^449-664 phosphorylation by insulin receptor, […] of the WGA-purified glycoprotein fraction was preincubated for 30 min at 30° C. with 100 nM of insulin in a phosphorylation buffer containing 20 mM Hepes (pH 7.4), 1 mM DTT, 10 mM MgCl2, 100 μg/ml bovine serum albumin, 0.2 mM Na3VO4, 1.7 mM CaCl2, 0.6 mg/ml phosphatidylserine, and 0.5 μg/ml okadaic acid. Autophosphorylation was initiated by the addition of ATP at a concentration of 50 μM and continued for 10 min at 30° C. Substrate phosphorylations were initiated by addition of equal volumes of […] (1 μg) with or without pre-treatment (30 min) by the PKC isoforms in the same buffer in the presence of 50 μM ATP and was allowed to proceed for 10 min at 30° C. in a final volume of 50 μl. […] Proteins were separated by SDS-PAGE and analyzed by immunodetection with an anti-phosphotyrosine antibody after transfer to nitrocellulose. Serine/threonine phosphorylation of rIRS-1^449-664 by different PKC isoforms was assessed by incubating 1 μg rIRS-1^449-664 with 0.5 μg PKC-rb or PKC-ζ in phosphorylation buffer for 30 min at 30° C. in the presence of 50 μM ATP plus 2 μCi [γ-^32P]ATP in a volume of 20 μl. […] The extent of phosphate incorporation was determined by Cerenkov counting of excised fragments. […]

PKC = assay: Phosphorylation of IRS-1 serine 612 by PKC, immunoblot with phosphoserine 612 antibody; details: PKC from rat brain and PKC-ζ, 30 min at 30° C.
Method: (A) 0.5 μg of rIRS-1^449-664 was incubated with 0.5 μg of the different PKCs for 30 min at 30° C. and immunoblotted with an antibody against phosphoserine 612. A representative experiment is shown. (B) Binding of p85α to immobilized peptides corresponding to the IRS-1 amino acids 605 to 615 with phosphotyrosine 608 or (C) without phosphotyrosine using surface plasmon resonance (pY608 -DDGpYMPMSPGV and Y608 -DDGYMPMSPGV). Protein concentrations of p85α used were (from bottom to top): 1, 5,10, 25, 50,100, 250, 500 nM. (D) Inhibition of p85α binding by competition with soluble peptides pY608-DDGpYMPMSPGV or (E) pY608-pS612-DDGpYMPMpSPGV. The soluble peptides were also immobilized on the chip. (F) Half-maximum inhibitory concentrations (IC50) were obtained by plotting the SPR response at equilibrium (440 s after injection) versus the log peptide concentration.
The inventors assessed modification of this site by PKC using a specific IRS-1 phosphoserine 612 antibody (αpS^612).

insulin receptor = molecular target: T1, insulin receptor (Rattus norvegicus, UniProt P15127); assay: In vitro phosphorylation assay: tyrosine phosphorylation of rIRS-1^449-664 by insulin receptor; details: BIM added for 10 min before substrate phosphorylation by IR
T1 construct: from tissue; host or cells: rat liver
Method: Rat liver was rapidly removed, immediately frozen in liquid nitrogen and processed as described (41). Briefly, 3.5 vol/wt of an ice-cold buffer consisting of 50 mM Hepes (pH 7.4), 1% Triton X-100 and 2× Complete Protease Inhibitors was added and the liver was homogenized using an Ultraturrax and a Potter-Elvehjem homogenizer, followed by centrifugation at 10,000×g for 10 min at 4° C. The resultant supernatant was slowly stirred at room temperature for 60 min, then again centrifuged at 100,000×g for 90 min at 4° C. The supernatant was then applied to an agarose-bound wheat germ agglutinin (WGA) column. The column was washed with 50 mM Hepes (pH 7.4), 0.1% Triton X-100, and bound glycoproteins were eluted from the WGA column with this buffer containing 0.3 M N-acetylglucoseamine.
For rIRS-1^449-664 phosphorylation by insulin receptor, […] of the WGA-purified glycoprotein fraction was preincubated for 30 min at 30° C. with 100 nM of insulin in a phosphorylation buffer containing 20 mM Hepes (pH 7.4), 1 mM DTT, 10 mM MgCl2, 100 μg/ml bovine serum albumin, 0.2 mM Na3VO4, 1.7 mM CaCl2, 0.6 mg/ml phosphatidylserine, and 0.5 μg/ml okadaic acid. Autophosphorylation was initiated by the addition of ATP at a concentration of 50 μM and continued for 10 min at 30° C. Substrate phosphorylations were initiated by addition of equal volumes of […] (1 μg) with or without pre-treatment (30 min) by the PKC isoforms in the same buffer in the presence of 50 μM ATP and was allowed to proceed for 10 min at 30° C. in a final volume of 50 μl. The reaction was terminated by the addition of 6× sample buffer (0.35 M Tris-HCl (pH 6.8), 10.28% (w/v) SDS, 36% (v/v) glycerol; 0.6 M DTT, 0.012% (w/v) bromphenol blue) and boiling for 5 min. Proteins were separated by SDS-PAGE and analyzed by immunodetection with an anti-phosphotyrosine antibody after transfer to nitrocellulose. Serine/threonine phosphorylation of rIRS-1^449-664 by different PKC isoforms was assessed by incubating 1 μg rIRS-1^449-664 with 0.5 μg PKC-rb or PKC-ζ in phosphorylation buffer for 30 min at 30° C. in the presence of 50 μM ATP plus 2 μCi [γ-^32P]ATP in a volume of 20 μl. Proteins were resolved by SDS-PAGE and the stained and dried gels were subjected to autoradiography. The extent of phosphate incorporation was determined by Cerenkov counting of excised fragments.
Proteins were separated by SDS-PAGE using 8-18% gradient gels followed by transfer to nitrocellulose in a semi-dry blotting apparatus. […] All blots were quantified using the Lumilmager software. Significance of reported differences was evaluated by using the null hypothesis and t statistics for unpaired data. […]

T1 sequence (P15127 27-759 limits assumed): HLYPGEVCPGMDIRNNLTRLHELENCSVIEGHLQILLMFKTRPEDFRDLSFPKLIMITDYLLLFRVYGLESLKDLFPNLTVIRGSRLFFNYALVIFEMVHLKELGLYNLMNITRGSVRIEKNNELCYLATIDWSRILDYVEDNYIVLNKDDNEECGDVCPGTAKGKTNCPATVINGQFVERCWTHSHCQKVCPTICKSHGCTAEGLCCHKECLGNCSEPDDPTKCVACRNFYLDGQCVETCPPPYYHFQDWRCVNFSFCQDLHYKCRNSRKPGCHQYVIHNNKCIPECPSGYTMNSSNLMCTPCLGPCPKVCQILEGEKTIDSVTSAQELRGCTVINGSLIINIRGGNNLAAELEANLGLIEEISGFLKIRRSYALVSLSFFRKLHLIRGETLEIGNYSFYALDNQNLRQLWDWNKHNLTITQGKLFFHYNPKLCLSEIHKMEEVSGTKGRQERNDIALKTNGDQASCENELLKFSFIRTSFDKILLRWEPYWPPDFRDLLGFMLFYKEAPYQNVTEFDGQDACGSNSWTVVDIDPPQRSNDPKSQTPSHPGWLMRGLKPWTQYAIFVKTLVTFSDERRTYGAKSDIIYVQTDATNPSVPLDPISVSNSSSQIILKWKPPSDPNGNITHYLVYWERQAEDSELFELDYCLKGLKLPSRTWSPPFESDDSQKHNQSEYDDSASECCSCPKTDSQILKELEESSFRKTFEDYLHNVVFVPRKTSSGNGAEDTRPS

## CN(C)CCCn1cc(C2=C(c3c[nH]c4ccccc34)C(=O)NC2=O)c2ccccc21 [BIM, bisindolylmaleimide I]
[1]
  Phosphorylation of rIRS-1^449-664 by PKC-rb in the presence of inhibitor: inhibited
PKC
  Phosphorylation of serine 612 of rIRS-1^449-664 by PKC in the presence of inhibitor: clearly prevented the phosphorylation of this serine
Insulin receptor
  Effect of inhibiting PKC-rb after phosphorylation of rIRS-1^449-664 on the reduced tyrosine phosphorylation and p85α association: did not modify this result
